Reference: PMC5290997 (Bioconjugate chemistry, 2016)

Tests used:
[1] = target: PSMA (Homo sapiens, UniProt Q04609); test: PSMA inhibition assay; type: biochemical; settings: LNCaP cell lysates, 4 µM NAAG, Cheng-Prusoff conversion
[2] = chelating agent for ^68Ga; cited from earlier work

Chain of PSMA (Q04609 whole entry): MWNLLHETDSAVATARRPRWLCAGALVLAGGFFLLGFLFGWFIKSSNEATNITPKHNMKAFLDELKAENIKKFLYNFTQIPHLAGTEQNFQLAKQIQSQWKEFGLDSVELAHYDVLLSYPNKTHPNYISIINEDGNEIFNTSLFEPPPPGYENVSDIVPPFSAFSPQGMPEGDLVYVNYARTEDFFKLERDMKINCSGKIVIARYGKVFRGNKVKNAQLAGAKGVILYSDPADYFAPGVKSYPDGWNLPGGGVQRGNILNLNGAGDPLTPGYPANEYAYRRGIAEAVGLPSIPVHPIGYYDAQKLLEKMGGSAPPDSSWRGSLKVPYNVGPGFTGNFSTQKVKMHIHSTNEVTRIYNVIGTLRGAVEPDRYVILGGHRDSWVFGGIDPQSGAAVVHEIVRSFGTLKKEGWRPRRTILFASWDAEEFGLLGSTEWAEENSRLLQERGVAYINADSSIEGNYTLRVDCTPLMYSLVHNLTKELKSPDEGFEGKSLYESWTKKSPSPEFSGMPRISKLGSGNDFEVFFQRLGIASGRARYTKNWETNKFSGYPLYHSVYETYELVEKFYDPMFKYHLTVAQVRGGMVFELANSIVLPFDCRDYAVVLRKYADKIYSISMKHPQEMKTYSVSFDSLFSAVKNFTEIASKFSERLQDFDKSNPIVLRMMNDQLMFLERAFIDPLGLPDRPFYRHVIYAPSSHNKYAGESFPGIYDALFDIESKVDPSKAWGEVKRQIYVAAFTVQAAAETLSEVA

Compound | Ki [1] [nM] | stability constant, KML [2]
O=C(O)CCc1ccc(O)c(CN(CCN(CC(=O)O)Cc2cc(CCC(=O)NCCCCCC(=O)NCCCC[C@H](NC(=O)N[C@@H](CCC(=O)O)C(=O)O)C(=O)O)ccc2O)CC(=O)O)c1 [DKFZ-PSMA-11, Glu-urea-Lys-(Ahx)-HBED-CC] | 0.03 | –
O=C(O)CN1CCN(CC(=O)O)CCN(CC(=O)O)CCN(CC(=O)O)CC1 [DOTA] | – | 21.3
O=C(O)CN1CCN(CC(=O)O)CCN(CC(=O)O)CC1 [NOTA, 1,4,7-triazacyclononane-1,4,7-triacetic acid] | – | 31.1
